Source: patent US20240228927A1, “MICROFLUIDIC PLATFORM FOR DETECTION OF LIVER INJURY” (Javelin Biotech, Inc., priority 2023, published 2024)
Where two headings read alike, the source gives them in different places.

What was measured:
[1] = tested on: liver; conditions: cited from earlier work
[2] = tested on: in vitro liver tissue; test: mitochondrial stress test: on-chip oxygen consumption rate (OCR) of liver tissue; format: cell-based, human; conditions: oligomycin 1 μM, FCCP 0.3 μM, rotenone 1 μM with antimycin A 0.5 μM, 30 min each; matured tissue on chip
Description: The microfluidic chip 100 and control system perform measurements of the oxygen consumption rate of in vitro liver tissue as a readout of mitochondrial function.
Oxygen sensing is achieved by combining a disposable oxygen sensor spot with an oxygen sensing meter. The meter provides an optical excitation signal to the sensor spot and measures the emitted light from the sensor spot. The light emitted by the sensor spot is influenced by a partial pressure of oxygen in fluid in contact with the sensor spot. Two sensor spots are placed in the primary flow path either side of the tissue culture area to measure the oxygen consumption of the tissue. The meters in the control module are placed such that they can measure the oxygen sensor values during normal operation.
The microfluidic chip 100 performs quantification of cellular respiration to assess mitochondrial function. […] To assess the sensitivity of the oxygen sensors 124a-b and on-chip OCR estimates, the microfluidic chip 100 performs a mitochondrial stress test. After cells are seeded on chips (e.g., 4 per treatment), tissue is matured (˜5-7 days), and basal OCR is established, oligomycin (1 μM & 30 min), which blocks proton translocation through complex V and represses ATP and OCR, are administered to the chips and OCR are assessed continuously. […] The oxygen sensors 124a-b read oxygen levels on the fluid path before and after the cell chamber. The inlet readout represents oxygenated media levels leaving the reoxygenation channel and the outlet readout reflects oxygen-depleted media due oxygen consumption of liver tissue. The continuous readouts are captured and recorded by the controller 114 of the microfluidic chip 100.

[3] = clinically observed, human plasma; cited from earlier work
[4] = less toxic comparator of Table 1

Compound	DILI presentation (Liver toxicant) ([1]; liver toxicant of Table 1)	Mechanism of toxicity ([1]; liver toxicant of Table 1)	further results
CC[C@H]1OC(=O)[C@H](C)C(=O)[C@H](C)[C@@H](O[C@@H]2O[C@H](C)C[C@H](N(C)C)[C@H]2O)[C@](C)(OC)C[C@@H](C)C(=O)[C@H](C)[C@H]2N(CCCCn3cnc(-c4cccnc4)c3)C(=O)O[C@]12C [Telithromycin]	ALT elevations	Bile acid	
Mipomersen			DILI presentation (Liver toxicant) ([1]; in vivo): ALT elevations; Mechanism of toxicity ([1]; in vivo): Lipid
CC(c1cc2ccccc2s1)N(O)C(N)=O (stereo not shown) [Zileuton]	ALT elevations	Reactive	
FCCP			OCR (oxygen consumption rate) [2]: increases OCR to its maximum level
O=C1CC2(CCCC2)CC(=O)N1CCCCN1CCN(c2ncccn2)CC1 [Buspirone]			Comparator characteristic ([1]; BSEP / mitochondrial toxicity relative to the paired liver toxicant): Less BSEP; DILI presentation (Less toxic comparator) [1, 4]: No/low
COC(c1ccccc1)(c1ccccc1)[C@H](Oc1nc(C)cc(C)n1)C(=O)O [Ambrisentan]			DILI presentation (Less toxic comparator) [1, 4]: Minimal
CN1CCN(C2=Nc3cc(Cl)ccc3Nc3ccccc32)CC1 [Clozapine]		Reactive	
N[C@@H]1[C@H]2CN(c3nc4c(cc3F)c(=O)c(C(=O)O)cn4-c3ccc(F)cc3F)C[C@@H]12 [Trovafloxacin]		Immune-	DILI presentation (Liver toxicant) ([1]; in vivo): Acute liver
O=C(O)Cc1ccccc1Nc1c(Cl)cccc1Cl [Diclofenac]			Cmax [3]: 4 to 10 µM
O=c1[nH]c(=O)n([C@@H]2O[C@H](CO)[C@@H](O)[C@@H]2F)cc1I [Fialuridine]	Liver failure	Mitochondrial	
Cc1cc2c(cc1CC(=O)c1sccc1S(=O)(=O)Nc1onc(C)c1Cl)OCO2 [Sitaxsentan]	ALT elevations	Reactive	
C=C(C)[C@H]1Cc2c(ccc3c2O[C@@H]2COc4cc(OC)c(OC)cc4[C@@H]2C3=O)O1 [Rotenone, rotenone]			OCR (oxygen consumption rate) [2]: complete reduction in OCR
CCN(CC)C(=O)/C(C#N)=C/c1cc(O)c(O)c([N+](=O)[O-])c1 [Entacapone]			DILI presentation (Less toxic comparator) [1, 4]: Low DILI
CC[C@H]1/C=C/C=C/C[C@@H](C)[C@H](O)[C@@](C)(O)C(=O)[C@@H](C)[C@H](O)[C@@H](C)C(=O)[C@@H](C)[C@H](O)[C@@H](C)/C=C/C(=O)O[C@@H]2[C@H](C)[C@H](CC1)O[C@]1(CC[C@H](C)[C@H](C[C@@H](C)O)O1)[C@H]2C [oligomycin]			OCR (oxygen consumption rate) [2]: decreased OCR values, but non-zero values
CCc1ccc(CCOc2ccc(CC3SC(=O)NC3=O)cc2)nc1 (stereo not shown) [Pioglitazone]			DILI presentation (Less toxic comparator) [1, 4]: Low DILI
Cc1c(C)c2c(c(C)c1O)CCC(C)(COc1ccc(CC3SC(=O)NC3=O)cc1)O2 (stereo not shown) [Troglitazone]	ALT, bilirubin	Reactive	
Cc1ccc(C(=O)c2cc(O)c(O)c([N+](=O)[O-])c2)cc1 [Tolcapone]	ALT elevations;	Reactive	
O=c1[nH]c(=O)n(C2OC(CO)C(O)C2F)cc1I (stereo not shown) [FIRU]			DILI presentation (Less toxic comparator) ([1]; in vivo): No DILI
C=C[C@@H]1C[C@]1(NC(=O)[C@@H]1C[C@@H](Oc2ncc(OC)c3ccc(Cl)cc23)CN1C(=O)[C@@H](NC(=O)OC(C)(C)C)C(C)(C)C)C(=O)NS(=O)(=O)C1CC1 [Asunaprevir]	ALT elevations		
CCc1nn(CCCN2CCN(c3cccc(Cl)c3)CC2)c(=O)n1CCOc1ccccc1 [Nefazodone]	Liver failure	Reactive	
Cc1cc2c(s1)Nc1ccccc1N=C2N1CCN(C)CC1 [Olanzapine]			DILI presentation (Less toxic comparator) [1, 4]: No DILI
